{"source": "patent US20240309018A1", "about": "“THIAZOLE-LACTAM-SPIROHETEROCYCLIC COMPOUNDS AND APPLICATIONS THEREOF” (D3 BIO (WUXI) CO., LTD, priority 2021, published 2024)", "key": {"[1]": {"experiment": "Hygroscopicity study (DVS)", "type": "physicochemical", "settings": "25° C. and 80% RH", "protocol": "Dynamic vapor adsorption (DVS) curves were collected on DVS Intrinsic plus of Surface Measurement Systems (SMS) company. The relative humidity at 25° C. was corrected with the deliquescent points of LiCl, Mg(NO3)2 and KCl.\n[…]"}, "[2]": {"experiment": "Solid stability test of the crystal form", "type": "physicochemical", "protocol": "The sample was placed at the bottom of an HPLC vial to form a thin layer. The samples were placed in a chamber at a constant temperature and humidity of 60° C./75% RH conditions and in a 92.5% RH desiccator. The bottles were sealed with a sealing film. Some small holes were punched in the sealing film to ensure that the samples were fully in contact with the ambient air. The caps of the sample bottles placed at 60° C. under light and light-shielding conditions (samples under light-shielding conditions were wrapped in tin foil) were tighten."}}, "data": [{"smiles": "Cc1cccc(CN2C(=O)c3nc(-c4nc(Nc5ccnn5C)ncc4C)sc3C23COC3)n1", "note": "[crystal form A of WX001]", "values": [{"measurement": "hygroscopicity classification", "setting": "[1]", "value": "almost no hygroscopicity"}, {"measurement": "ΔW, weight increase by moisture absorption", "setting": "[1]; DVS", "value": 0.1134, "unit": "%"}, {"measurement": "Crystal form", "setting": "[2]; 0 day", "value": "Crystal form A"}, {"measurement": "Crystal form", "setting": "[2]; 60° C., 5 days", "value": "Crystal form A"}, {"measurement": "Crystal form", "setting": "[2]; 60° C., 10 days", "value": "Crystal form A"}, {"measurement": "Crystal form", "setting": "[2]; 60° C./75% RH, 1 month", "value": "Crystal form A"}, {"measurement": "Crystal form", "setting": "[2]; 60° C./75% RH, 2 months", "value": "Crystal form A"}, {"measurement": "Crystal form", "setting": "[2]; 60° C./75% RH, 3 months", "value": "Crystal form A"}, {"measurement": "Crystal form", "setting": "[2]; 92.5% RH, 5 days", "value": "Crystal form A"}, {"measurement": "Crystal form", "setting": "[2]; 92.5% RH, 10 days", "value": "Crystal form A"}, {"measurement": "Crystal form", "setting": "[2]; Control group of light-shielding, taking points simultaneously with visible light + UV group", "value": "Crystal form A"}, {"measurement": "Crystal form", "setting": "[2]; Control group of light-shielding, taking points simultaneously with visible light group", "value": "Crystal form A"}, {"measurement": "Crystal form", "setting": "[2]; Visible light (ICH conditions), reaching illumination of 1.2E+06 Lux · hrs", "value": "Crystal form A"}, {"measurement": "Crystal form", "setting": "[2]; Visible light + UV (ICH conditions), reaching illumination of 200 W · hrs/m^2", "value": "Crystal form A"}, {"measurement": "solid stability, conclusion", "setting": "[2]; all conditions of Table 15", "value": "good stability"}]}]}
